Measured values: PMC12669672, “Structural insights into selective and dual antagonism of EP2 and EP4 prostaglandin receptors” (The EMBO Journal, 2025)
Several values for one entry are separate records, joined by “and”; a condition that tells them apart may be missing. Equal values may be shown once.

How the values were obtained:
Format in all cases: cell-based
[1] = target: T1, constitutively active EP2 T82A (Homo sapiens, UniProt P43116, T82A); assay: GloSensor cAMP assay, inhibition of constitutive activity
T1 construct: The full-length EP2 or EP4 was cloned into the pcDNA3.1 vector; FLAG (N); expressed in transfected cells; host or cells: AD293 cells
T1 sequence (P43116 whole entry T82A): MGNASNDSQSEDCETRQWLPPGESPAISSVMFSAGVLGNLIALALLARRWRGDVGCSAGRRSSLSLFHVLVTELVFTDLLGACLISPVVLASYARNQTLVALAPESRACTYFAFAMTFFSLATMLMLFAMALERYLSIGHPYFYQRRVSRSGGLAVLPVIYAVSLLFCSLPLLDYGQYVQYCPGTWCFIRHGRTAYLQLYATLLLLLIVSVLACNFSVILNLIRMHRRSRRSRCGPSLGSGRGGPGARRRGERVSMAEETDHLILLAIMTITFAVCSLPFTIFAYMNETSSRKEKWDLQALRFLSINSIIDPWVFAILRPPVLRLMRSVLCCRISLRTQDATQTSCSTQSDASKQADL
How it was run: (§1)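 Read-out is GloSensor luminescence from AD293 cells co-expressing FLAG-tagged EP2 variant and GloSensor22F biosensor, transfected at a 1:1 plasmid ratio. Cells were plated at 4000 per well in CO2-independent medium containing 2% cAMP reagent, incubated 1 h at 37 °C, then read.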

[2] = target: T2, constitutively active EP2 M116A (Homo sapiens, UniProt P43116, M116A); assay: as above
T2 construct: The full-length EP2 or EP4 was cloned into the pcDNA3.1 vector; FLAG (N); expressed in transfected cells; host or cells: AD293 cells
T2 sequence (P43116 whole entry M116A): as the sequence (P43116 whole entry T82A) above, with A82T, M116A counted along it
How it was run: as §1

[3] = target: T3, constitutively active EP2 W186A (Homo sapiens, UniProt P43116, W186A); assay: as above
T3 construct: The full-length EP2 or EP4 was cloned into the pcDNA3.1 vector; FLAG (N); expressed in transfected cells; host or cells: AD293 cells
T3 sequence (P43116 whole entry W186A): as the sequence (P43116 whole entry T82A) above, with A82T, W186A counted along it
How it was run: as §1

[4] = target: T4, constitutively active EP2 S86A (Homo sapiens, UniProt P43116, S86A); assay: as above; conditions: for cAMP activity (∆pIC50 from EP2 WT): PF-04418948, S86A
T4 construct: The full-length EP2 or EP4 was cloned into the pcDNA3.1 vector; FLAG (N); expressed in transfected cells; host or cells: AD293 cells
T4 sequence (P43116 whole entry S86A): as the sequence (P43116 whole entry T82A) above, with A82T, S86A counted along it
How it was run: as §1

EP2 S305A = target: T5, EP2 S305A (Homo sapiens, UniProt P43116, S305A); assay: GloSensor cAMP assay, antagonism of PGE2-induced cAMP; conditions: single experiments 1st-3rd
T5 construct: The full-length EP2 or EP4 was cloned into the pcDNA3.1 vector; FLAG (N); expressed in transfected cells; host or cells: AD293 cells
T5 sequence (P43116 whole entry S305A): as the sequence (P43116 whole entry T82A) above, with A82T, S305A counted along it
How it was run: as §1

EP2 M116A = target: T6, EP2 M116A (Homo sapiens, UniProt P43116, M116A); assay: as above; conditions: 1 h, single experiments 1st-3rd, Fig. 3D, read-out: % cAMP activity (normalized to WT)
T6 construct: The full-length EP2 or EP4 was cloned into the pcDNA3.1 vector; FLAG (N); expressed in transfected cells; host or cells: AD293 cells
T6 sequence (P43116 whole entry M116A): as the sequence (P43116 whole entry T82A) above, with A82T, M116A counted along it
How it was run: as §1

EP2 T82A = target: T7, EP2 T82A (Homo sapiens, UniProt P43116, T82A); assay: as above; conditions: 1 h, single experiments 1st-3rd, Fig. 3D, read-out: % cAMP activity (normalized to WT)
T7 construct: The full-length EP2 or EP4 was cloned into the pcDNA3.1 vector; FLAG (N); expressed in transfected cells; host or cells: AD293 cells
T7 sequence (P43116 whole entry T82A): as the sequence (P43116 whole entry T82A) above
How it was run: as §1

EP2 W186A = target: T8, EP2 W186A (Homo sapiens, UniProt P43116, W186A); assay: as above; conditions: 1 h, single experiments 1st-3rd, Fig. 3D, read-out: % cAMP activity (normalized to WT)
T8 construct: The full-length EP2 or EP4 was cloned into the pcDNA3.1 vector; FLAG (N); expressed in transfected cells; host or cells: AD293 cells
T8 sequence (P43116 whole entry W186A): as the sequence (P43116 whole entry T82A) above, with A82T, W186A counted along it
How it was run: as §1

EP2 S308A = target: T9, EP2 S308A (Homo sapiens, UniProt P43116, S308A); assay: as above; conditions: single experiments 1st-3rd
T9 construct: The full-length EP2 or EP4 was cloned into the pcDNA3.1 vector; FLAG (N); expressed in transfected cells; host or cells: AD293 cells
T9 sequence (P43116 whole entry S308A): as the sequence (P43116 whole entry T82A) above, with A82T, S308A counted along it
How it was run: as §1

EP2 S86A = target: T10, EP2 S86A (Homo sapiens, UniProt P43116, S86A); assay: as above; conditions: single experiments 1st-3rd
T10 construct: The full-length EP2 or EP4 was cloned into the pcDNA3.1 vector; FLAG (N); expressed in transfected cells; host or cells: AD293 cells
T10 sequence (P43116 whole entry S86A): as the sequence (P43116 whole entry T82A) above, with A82T, S86A counted along it
How it was run: as §1

[5] = 1 h, PF-04418948 log([M]) -10.00, read-out: % cAMP activity (normalized to WT)
[6] = 1 h, PF-04418948 log([M]) -12.00, read-out: % cAMP activity (normalized to WT)
[7] = no PGE2, pIC50 mutant - pIC50 WT, mean
[8] = 1 h, PF-04418948 log([M]) -5.00, read-out: % cAMP activity (normalized to WT)
[9] = 1 h, PF-04418948 log([M]) -6.00, read-out: % cAMP activity (normalized to WT)
[10] = 1 h, PF-04418948 log([M]) -11.00, read-out: % cAMP activity (normalized to WT)
[11] = 1 h, PF-04418948 log([M]) -7, Fig. 3D, read-out: % cAMP activity (normalized to WT)
[12] = 1 h, PF-04418948 log([M]) -8, Fig. 3D, read-out: % cAMP activity (normalized to WT)
[13] = 1 h, PF-04418948 log([M]) -10, Fig. 3D, read-out: % cAMP activity (normalized to WT)
[14] = 1 h, PF-04418948 log([M]) -11, Fig. 3D, read-out: % cAMP activity (normalized to WT)
[15] = 1 h, PF-04418948 log([M]) -9, Fig. 3D, read-out: % cAMP activity (normalized to WT)
[16] = 1 h, PF-04418948 log([M]) -12, Fig. 3D, read-out: % cAMP activity (normalized to WT)

COc1ccc2cc(OCC3(C(=O)O)CN(C(=O)c4ccc(F)cc4)C3)ccc2c1 [PF-04418948]
remaining activity at 0.0001 µM [1, 5]: 302%
remaining activity at 1 pM [1, 6]: 299%
cAMP activity (∆pIC50 from EP2 WT) ([1]; PF-04418948, T82A, Mean): -0.369
ΔpIC50 [1, 7]: -0.37 ± 0.10
remaining activity at 10 µM [2, 8]: 5.6%
remaining activity at 1 µM [2, 9]: 38.1%
remaining activity at 0.0001 µM [2, 5]: 245%
remaining activity at 10 pM [2, 10]: 252%
cAMP activity (∆pIC50 from EP2 WT) ([2]; PF-04418948, M116A, Mean): -1.518
ΔpIC50 [2, 7]: -1.52 ± 0.12
remaining activity at 1 µM [3, 9]: 49.1%
remaining activity at 0.01 µM ([3]; 1 h, PF-04418948 log([M]) -8.00, read-out: % cAMP activity (normalized to WT)): 95.7%
remaining activity at 0.001 µM ([3]; 1 h, PF-04418948 log([M]) -9.00, read-out: % cAMP activity (normalized to WT)): 94.5%
remaining activity at 0.0001 µM [3, 5]: 103%
remaining activity at 10 pM [3, 10]: 108%
remaining activity at 1 pM [3, 6]: 90.9%
cAMP activity (∆pIC50 from EP2 WT) ([3]; PF-04418948, W186A, Mean): -2.049
ΔpIC50 [3, 7]: -2.05 ± 0.09
remaining activity at 10 µM [4, 8]: 14.6%
remaining activity at 1 µM [4, 9]: 35.7%
cAMP activity (∆pIC50 from EP2 WT) ([4]; Mean): -0.316
cAMP activity (∆pIC50 from EP2 WT) ([4]; single experiments 1st-3rd): -0.355 and -0.329 and -0.263
remaining activity at 0.1 µM (EP2 S305A; [11]): 22.4%
remaining activity at 0.01 µM (EP2 S305A; [12]): 45.9%
remaining activity at 0.0001 µM (EP2 S305A; [13]): 47.9%
remaining activity at 10 pM (EP2 S305A; [14]): 41.3%
cAMP activity (∆pIC50 from EP2 WT) (EP2 S305A; Fig. 3E): -1.170 and -1.396 and -1.144
remaining activity at 1 µM (EP2 M116A; PF-04418948 log([M]) -6): 5.4%
remaining activity at 0.1 µM (EP2 M116A; PF-04418948 log([M]) -7): 26.1%
remaining activity at 0.01 µM (EP2 M116A; PF-04418948 log([M]) -8): 58.4%
remaining activity at 0.001 µM (EP2 M116A; PF-04418948 log([M]) -9): 56.2%
remaining activity at 0.0001 µM (EP2 M116A; PF-04418948 log([M]) -10): 64.8%
remaining activity at 10 pM (EP2 M116A; PF-04418948 log([M]) -11): 75.1%
remaining activity at 1 pM (EP2 M116A; PF-04418948 log([M]) -12): 77.8%
remaining activity at 1 µM (EP2 T82A; PF-04418948 log([M]) -6): 9.17%
remaining activity at 0.1 µM (EP2 T82A; PF-04418948 log([M]) -7): 19.3%
remaining activity at 0.01 µM (EP2 T82A; PF-04418948 log([M]) -8): 47.4%
remaining activity at 0.001 µM (EP2 T82A; PF-04418948 log([M]) -9): 55.3%
remaining activity at 1 µM (EP2 W186A; PF-04418948 log([M]) -6): 7.94%
remaining activity at 0.1 µM (EP2 W186A; PF-04418948 log([M]) -7): 18%
remaining activity at 0.01 µM (EP2 W186A; PF-04418948 log([M]) -8): 24.6%
remaining activity at 0.001 µM (EP2 W186A; PF-04418948 log([M]) -9): 23.9%
remaining activity at 0.0001 µM (EP2 W186A; PF-04418948 log([M]) -10): 24.4%
remaining activity at 10 pM (EP2 W186A; PF-04418948 log([M]) -11): 29.3%
remaining activity at 1 pM (EP2 W186A; PF-04418948 log([M]) -12): 27.9%
remaining activity at 0.1 µM (EP2 S308A; [11]): 27.6%
remaining activity at 0.01 µM (EP2 S308A; [12]): 78.6%
remaining activity at 0.001 µM (EP2 S308A; [15]): 89.1%
remaining activity at 0.0001 µM (EP2 S308A; [13]): 86.2%
remaining activity at 10 pM (EP2 S308A; [14]): 84.2%
remaining activity at 1 pM (EP2 S308A; [16]): 83.9%
cAMP activity (∆pIC50 from EP2 WT) (EP2 S308A; Fig. 3E): -0.810 and -0.830 and -1.090
remaining activity at 0.01 µM (EP2 S86A; [12]): 35%
remaining activity at 0.001 µM (EP2 S86A; [15]): 61.5%
remaining activity at 0.0001 µM (EP2 S86A; [13]): 63.4%
remaining activity at 10 pM (EP2 S86A; [14]): 75.5%
remaining activity at 1 pM (EP2 S86A; [16]): 72.4%
cAMP activity (∆pIC50 from EP2 WT) (EP2 S86A; Fig. 3E): 0.200 and 0.410 and 0.340
